We go through six compounds from patent US9314383B2, “Absorptive article” (UNICHARM CORPORATION, priority 2012, dated 2016).

The text on this data set:
The term “solubility” used herein in regard to water solubility includes cases where the sample completely dissolves in deionized water to form a homogeneous mixture, and cases where the sample is completely emulsified. Here, “completely” means that no mass of the sample remains in the deionized water.
Take `CC(C)CCCCCCCCCCCCCCCOC(=O)CC(O)C(=O)OCCCCCCCCCCCCCCCC(C)C` (stereo not drawn) [Diisostearyl malate]: the “Water solubility (g)” value is recorded as 20< g.
On to `CCCCC(CC)C(=O)OCC(C)(C)COC(=O)C(CC)CCCC` (stereo not drawn) [H-208BRS, Neopentyl glycol di(2-ethylhexanoate)], for which the “Water solubility” value is on record as <0.05 g.
In the case of `CCCCCCCCCCCC(=O)OCC(O)CO` (stereo not drawn) [90-L2 Lauric acid monoglyceride, lauric acid monoglyceride], the “Water solubility (g)” value is 20< g.
On to `CCCCOC(=O)CC(CC(=O)OCCCC)(OC(C)=O)C(=O)OCCCC` [Tributyl O-acetylcitrate], for which the “Water solubility” value is <0.05 g.
On to `CCCCC(CC)C(=O)OCC(COC(=O)C(CC)CCCC)OC(=O)C(CC)CCCC` (stereo not drawn) [PANACET 800B], for which the “Water solubility” value was <0.05 g.
Still for that read-out and setting: the value for `CCCCCCCC(=O)OCC(COC(=O)CCCCCCC)OC(=O)CCCCCCC` [PANACET 800] was <0.05 g.
